{"source": "patent US20190328710A1", "about": "“SYNERGISTIC COMPOSITION FOR INHIBITING ADVANCED GLYCATION END PRODUCT CROSSLINKING” (H2 Water Technologies Ltd., priority 2018, published 2019)", "origin": "cited, not measured here", "tested_on": "patients with cataracts", "conditions": "96-patient trial, 6-month trial period"}
{"molecule": "NCCC(=O)N[C@@H](Cc1cnc[nH]1)C(=O)O", "note": "[L-Carnosine]", "values": [{"measurement": "success rate in advanced senile cataracts", "setting": "advanced senile cataracts", "result": 80, "unit": "%"}, {"measurement": "success rate in patients with mild to moderate cataracts", "setting": "mild to moderate cataracts", "result": 100, "unit": "%"}]}
